Measurements published in patent US20200319163A1, “METHODS AND COMPOSITIONS OVERCOMING CANCER CELL IMMUNE RESISTANCE” (Georgetown University, priority 2019, published 2020).

System: ADCCR1 cells
Experiment: ADCC assay (specific lysis by NK92-CD16V effector cells) on ADCC-resistant cells
Assay type: cell-based, human
Settings: ADCCR1 pretreated with inhibitor 0.01 to 10 μmol/L for 2 hours; ADCC assay at 4 hours; FIG. 4B, 4C
Description: Inhibitors of histone acetyltransferase C646 (cat. no. S7152), DNA methyltransferase azacytidine (cat. no. S1782), histone demethylase GSK J4 HCL (cat. no. S7070), and HDAC panobinostat (cat. no. S1030) were purchased from Selleck Chemicals. Inhibitors were solubilized in DMSO at […]. Vehicle treatment (DMSO) was used at the highest equivalent v/v used in inhibitor treatments.
ADCC assays were preformed using A431/ADCCS1/ADCCR1 as target cells and NK92-CD16V cells as the effector cells. Target cells are plated at 10,000 cells/well overnight (A431 cells double overnight).

CC1=NN(c2ccc(C(=O)O)cc2)C(=O)/C1=C\c1ccc(-c2cc(C)c(C)cc2[N+](=O)[O-])o1 [C646]
ADCC resistance / resensitization to ADCC (specific lysis): partially reversed
